Laboratory results from patent US8075921B2, “Rapamycin-resistant T cells and therapeutic uses thereof” (The United States of America as represented by the …, priority 2001, dated 2011).

Columns and labels:
[1] = tested on: naïve human CD4 cells; experiment: Co-stimulated expansion of flow-sorted naïve CD4 cells with or without rapamycin; assay type: cell-based; settings: in rapamycin relative to control culture
Excerpt: (§1) To this extent, naïve or memory human CD4 cells were purified by flow sorting, and co-stimulated either with or without rapamycin (results in FIG. 31).

[2] = tested on: memory CD45RO^+ sorted cells; experiment: Co-stimulated expansion of flow-sorted memory CD4 cells with or without rapamycin; assay type: cell-based, human; settings: in rapamycin relative to control culture
Excerpt: as §1

With `CO[C@H]1C[C@@H]2CC[C@@H](C)[C@@](O)(O2)C(=O)C(=O)N2CCCC[C@H]2C(=O)O[C@H]([C@H](C)C[C@@H]2CC[C@@H](O)[C@H](OC)C2)CC(=O)[C@H](C)/C=C(\C)[C@@H](O)[C@@H](OC)C(=O)[C@H](C)C[C@H](C)/C=C/C=C/C=C/1C` [rapamycin] the “reduction in CD4 yield” value [1] was ~25% and the “reduction in CD4+ T cell expansion” value [2] was ~50%.
